Laboratory results from the supplement of paper PMC10307832.

How the values were obtained:
Assay in all cases: relative viability (nuclei count vs DMSO), 5 days (fraction); higher = more cells survive
MK-8033 + Linsitinib = compound: Cn1cc(-c2cnc3ccc4ccc(CS(=O)(=O)NCc5ccccn5)cc4c(=O)c3c2)cn1 [MK-8033] + C[C@]1(O)C[C@@H](c2nc(-c3ccc4ccc(-c5ccccc5)nc4c3)c3c(N)nccn32)C1 [Linsitinib] (partner 1 µM)
Outline: (§1)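 Relative viability divides the nuclei count in treated wells by that in vehicle wells. Lung cancer cell lines were seeded in 1536-well plates, dosed by pin tool the next day, and fixed and stained after 5 days in one step with final 0.05% Triton X-100, 1% formaldehyde and 1 ug/ml Hoechst. Dosing was a single drug or a fixed anchor-drug dose plus five library-drug doses (not always all listed) in √10 steps, and values are medians of duplicate plates imaged at 4×.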

Irinotecan + Lapatinib = compound: CCc1c2c(nc3ccc(OC(=O)N4CCC(N5CCCCC5)CC4)cc13)-c1cc3c(c(=O)n1C2)COC(=O)[C@]3(O)CC [Irinotecan] + CS(=O)(=O)CCNCc1ccc(-c2ccc3ncnc(Nc4ccc(OCc5cccc(F)c5)c(Cl)c4)c3c2)o1 [Lapatinib] (partner 2 µM)
Outline: as §1

MK-8033 + Navitoclax = compound: Cn1cc(-c2cnc3ccc4ccc(CS(=O)(=O)NCc5ccccn5)cc4c(=O)c3c2)cn1 [MK-8033] + CC1(C)CCC(c2ccc(Cl)cc2)=C(CN2CCN(c3ccc(C(=O)NS(=O)(=O)c4ccc(N[C@H](CCN5CCOCC5)CSc5ccccc5)c(S(=O)(=O)C(F)(F)F)c4)cc3)CC2)C1 [Navitoclax] (partner 0.5 µM)
Outline: as §1

RU-SKI 43 + Pictilisib = compound: CC[C@@H](C)CNCC(=O)N1CCC2=C([C@@H]1COC3=CC=CC(=C3)C)C=CS2 [RU-SKI 43] + CS(=O)(=O)N1CCN(Cc2cc3nc(-c4cccc5[nH]ncc45)nc(N4CCOCC4)c3s2)CC1 [Pictilisib] (partner 1 µM)
Outline: as §1

Cell Line | relative viability (MK-8033 + Linsitinib; first compound 0.02 µM) | relative viability (MK-8033 + Linsitinib; first compound 0.06325 µM) | relative viability (MK-8033 + Linsitinib; first compound 0.2 µM) | relative viability (MK-8033 + Linsitinib; first compound 0.6325 µM) | relative viability (MK-8033 + Linsitinib; first compound 2 µM) | relative viability (Irinotecan + Lapatinib; first compound 0.6325 µM) | relative viability (Irinotecan + Lapatinib; first compound 2 µM) | relative viability (Irinotecan + Lapatinib; first compound 6.325 µM) | relative viability (Irinotecan + Lapatinib; first compound 20 µM) | relative viability (MK-8033 + Navitoclax; first compound 0.02 µM) | relative viability (MK-8033 + Navitoclax; first compound 0.06325 µM) | relative viability (MK-8033 + Navitoclax; first compound 0.2 µM) | relative viability (MK-8033 + Navitoclax; first compound 0.6325 µM) | relative viability (MK-8033 + Navitoclax; first compound 2 µM) | relative viability (RU-SKI 43 + Pictilisib; first compound 0.1 µM) | relative viability (RU-SKI 43 + Pictilisib; first compound 0.3162 µM) | relative viability (RU-SKI 43 + Pictilisib; first compound 1 µM) | relative viability (RU-SKI 43 + Pictilisib; first compound 3.162 µM) | relative viability (RU-SKI 43 + Pictilisib; first compound 10 µM)
NCI-H1651 | 1.07 | 0.835 | 0.824 | 1.03 | 0.856 | 0.293 | 0.536 | 0.179 | 0.101 | 1.06 | 1.03 | 1.07 | 1.13 | 1.02 | 0.606 | 0.783 | 0.76 | 0.621 | 0.728
NCI-H1355 | 0.735 | 0.7 | 0.762 | 0.795 | 0.828 | 0.534 | 0.909 | 0.264 | 0.242 | 0.911 | 0.897 | 0.894 | 0.981 | 0.928 | 0.432 | 0.331 | 0.508 | 0.465 | 0.442
NCI-H1563 | 1.26 | 1.15 | 1.13 | 1.23 | 1.19 | 0.674 | 1.05 | 0.954 | 0.441 | – | – | – | – | – | 0.682 | 0.653 | 0.689 | 0.701 | 0.646
NCI-H1650 | – | – | – | – | – | 0.386 | 0.51 | 0.401 | 0.152 | 1.21 | 1.13 | 1.11 | 1.11 | 1.18 | 0.561 | 0.579 | 0.616 | 0.739 | 0.382
HCC-78 | 0.474 | 0.501 | 0.474 | – | 0.581 | 0.551 | 0.543 | 0.206 | 0.218 | 0.596 | 0.665 | 0.767 | – | 0.774 | 0.24 | 0.232 | 0.278 | 0.176 | 0.191
NCI-H1437 | 0.976 | 1.01 | 0.94 | 1.01 | 0.917 | 0.527 | 0.493 | 0.253 | 0.117 | 1.03 | 1.03 | 1.01 | 1 | 0.953 | 0.438 | 0.529 | 0.432 | 0.465 | 0.446
BEN | 0.906 | 0.859 | 0.765 | 0.844 | 0.853 | 0.542 | 0.418 | 0.244 | 0.338 | 0.067 | 0.0568 | 0.0526 | 0.0753 | 0.0791 | 0.642 | 0.546 | 0.791 | 0.528 | 0.584
LCLC-103H | 1.01 | 1.04 | 1.05 | 1.11 | 1.17 | – | – | – | – | – | – | – | – | – | 0.663 | 0.629 | 0.712 | 0.624 | 0.691
NCI-H1915 | 1.12 | 1.07 | 1.09 | 1.08 | 1.15 | 0.434 | 0.373 | 0.147 | 0.15 | 0.812 | 0.699 | 0.801 | 0.811 | 0.783 | 1.02 | 0.954 | 1.03 | 0.961 | 0.927
NCI-H2085 | 0.831 | 0.797 | 0.837 | 0.943 | 0.825 | 0.592 | 0.608 | 0.473 | 0.515 | 1.03 | 1.03 | 1.1 | 1.13 | 1.14 | 0.476 | 0.353 | 0.473 | 0.409 | 0.469
NCI-H23 | 0.508 | 0.576 | 0.407 | 0.599 | 0.508 | 0.653 | 0.466 | 0.277 | 0.271 | 0.938 | 0.777 | 0.682 | 0.779 | 0.837 | 0.441 | 0.497 | 0.536 | 0.492 | 0.468
EPLC-272H | 1.17 | – | 1.01 | 1.07 | 1.17 | 0.509 | 0.758 | 0.211 | 0.267 | 1.12 | – | 1.07 | 0.853 | 1.08 | 0.316 | 0.315 | 0.404 | – | 0.291
EBC-1 | 0.938 | 0.68 | 0.895 | 1.05 | 0.167 | 0.219 | 0.172 | 0.21 | 0.15 | 0.428 | 0.383 | 0.474 | 0.404 | 0.13 | 0.345 | 0.283 | 0.429 | 0.316 | 0.196
SK-MES-1 | 1.06 | 0.995 | 1.04 | 1.09 | 1.09 | 0.544 | 0.414 | 0.25 | 0.32 | 1.23 | 1.16 | 1.16 | 1.23 | 1.18 | 0.34 | 0.332 | 0.366 | 0.444 | 0.336
A549 | 0.627 | 0.571 | 0.52 | 0.515 | 0.581 | 0.723 | 0.529 | 0.112 | 0.0497 | 1.22 | 1.13 | 1.16 | 1.19 | 1.14 | 0.511 | 0.742 | 0.594 | 0.439 | 0.384
NCI-H2126 | 0.727 | 0.659 | 0.673 | 0.686 | 0.715 | – | 0.632 | 0.304 | 0.357 | 0.836 | 0.838 | 0.861 | 0.832 | 0.827 | 0.491 | 0.407 | 0.549 | 0.492 | 0.507
NCI-H2087 | 1.15 | 0.973 | 0.832 | 0.91 | 0.915 | 0.299 | 0.3 | 0.168 | 0.205 | 1.1 | 0.877 | 0.916 | 1 | 1.05 | 0.797 | 0.992 | 1.16 | 0.992 | 0.944
EMC-BAC-2 | 0.774 | 0.771 | 0.744 | 0.893 | 0.791 | 0.774 | 0.578 | 0.27 | 0.246 | 1.16 | 1.06 | 1.12 | 1.14 | 1.15 | 0.516 | 0.518 | 0.561 | 0.565 | 0.511
